Data reported in ChEMBL document CHEMBL3286098, “α-Methylated simplified resiniferatoxin (sRTX) thiourea analogues as potent and stereospecific TRPV1 antagonists” (Bioorg Med Chem Lett, 2014).
The source made the active and inactive calls. The calls are words filed in the database; no cut-off is given here.

What was measured:
[1] = molecular target: Transient receptor potential cation channel subfamily V member 1 (Rattus norvegicus) (UniProt O35433); assay: Agonist activity at rat TRPV1 heterologously expressed in CHO cells assessed as […] [45Ca2+] uptake by liquid scintillation counting; format: cell-based
[2] = molecular target: T1, Transient receptor potential cation channel subfamily V member 1 (Rattus norvegicus, UniProt O35433); assay: Displacement of [3H]RTX from rat TRPV1 after 60 mins by competitive binding assay
[3] = molecular target: T1, Transient receptor potential cation channel subfamily V member 1; assay: Antagonist activity at rat TRPV1 heterologously expressed in CHO cells assessed as inhibition of capsaicin-induced [45Ca2+] uptake by liquid scintillation counting; format: cell-based

Sequence of Transient receptor potential cation channel subfamily V member 1 (Rattus norvegicus) (O35433 whole entry): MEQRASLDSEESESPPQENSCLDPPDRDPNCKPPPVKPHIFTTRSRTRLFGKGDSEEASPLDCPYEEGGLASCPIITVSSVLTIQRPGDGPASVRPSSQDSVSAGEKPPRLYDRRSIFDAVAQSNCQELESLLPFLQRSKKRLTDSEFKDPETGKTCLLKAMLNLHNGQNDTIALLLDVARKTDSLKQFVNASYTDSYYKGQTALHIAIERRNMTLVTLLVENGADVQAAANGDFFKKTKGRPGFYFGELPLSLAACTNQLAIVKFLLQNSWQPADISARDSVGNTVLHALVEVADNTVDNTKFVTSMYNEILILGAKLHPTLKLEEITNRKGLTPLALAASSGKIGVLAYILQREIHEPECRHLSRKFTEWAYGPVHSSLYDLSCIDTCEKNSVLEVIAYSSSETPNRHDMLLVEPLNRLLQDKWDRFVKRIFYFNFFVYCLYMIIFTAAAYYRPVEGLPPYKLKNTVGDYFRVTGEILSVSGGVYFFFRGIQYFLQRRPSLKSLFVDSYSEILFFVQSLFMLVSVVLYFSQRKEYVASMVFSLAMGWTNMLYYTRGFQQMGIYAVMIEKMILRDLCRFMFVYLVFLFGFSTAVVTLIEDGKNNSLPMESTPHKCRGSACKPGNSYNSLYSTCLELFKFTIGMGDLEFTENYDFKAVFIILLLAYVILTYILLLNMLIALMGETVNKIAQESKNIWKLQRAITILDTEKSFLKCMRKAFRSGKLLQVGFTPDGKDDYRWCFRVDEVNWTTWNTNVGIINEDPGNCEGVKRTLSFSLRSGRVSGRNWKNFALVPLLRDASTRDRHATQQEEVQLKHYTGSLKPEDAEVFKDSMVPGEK
T1 sequence (O35433 whole entry): as above

Compound	Activity [1]	Ki [2] [nM]	Ki [3] [nM]
C[C@@H](NC(=S)N[C@H](COC(=O)C(C)(C)C)Cc1ccccc1)c1ccc(NS(C)(=O)=O)cc1	inactive	–	–
C[C@@H](NC(=S)N[C@@H](COC(=O)C(C)(C)C)Cc1ccccc1)c1ccc(NS(C)(=O)=O)cc1	inactive	–	–
C[C@H](NC(=S)NC[C@H](COC(=O)C(C)(C)C)Cc1ccccc1)c1ccc(NS(C)(=O)=O)cc1	inactive	–	–
C[C@@H](NC(=S)NC[C@@H](COC(=O)C(C)(C)C)Cc1ccc(C(C)(C)C)cc1)c1ccc(NS(C)(=O)=O)cc1	inactive	6.75	–
C[C@H](NC(=S)NC[C@@H](COC(=O)C(C)(C)C)Cc1ccccc1)c1ccc(NS(C)(=O)=O)cc1	inactive	–	–
Cc1ccc(C[C@H](CNC(=S)N[C@H](C)c2ccc(NS(C)(=O)=O)cc2)COC(=O)C(C)(C)C)cc1C	inactive	–	–
CC(C)(C)C(=O)OC[C@@H](CNC(=S)NCc1ccc(NS(C)(=O)=O)cc1)Cc1ccc(C(C)(C)C)cc1	–	64	86
Cc1ccc(C[C@H](CNC(=S)NCc2ccc(NS(C)(=O)=O)cc2)COC(=O)C(C)(C)C)cc1C	–	29.3	67
C[C@H](NC(=S)N[C@H](COC(=O)C(C)(C)C)Cc1ccccc1)c1ccc(NS(C)(=O)=O)cc1	inactive	–	–
C[C@@H](NC(=S)NCC(COC(=O)C(C)(C)C)Cc1ccc(C(C)(C)C)cc1)c1ccc(NS(C)(=O)=O)cc1 (stereo not given in full)	inactive	–	–
C[C@@H](NC(=S)NC[C@H](COC(=O)C(C)(C)C)Cc1ccccc1)c1ccc(NS(C)(=O)=O)cc1	inactive	–	–
Cc1ccc(C[C@@H](CNC(=S)N[C@H](C)c2ccc(NS(C)(=O)=O)cc2)COC(=O)C(C)(C)C)cc1C	inactive	2.12	13.2
C[C@@H](NC(=S)NC[C@H](COC(=O)C(C)(C)C)Cc1ccc(C(C)(C)C)cc1)c1ccc(NS(C)(=O)=O)cc1	inactive	17.9	–
C[C@@H](NC(=S)NC[C@@H](COC(=O)C(C)(C)C)Cc1ccccc1)c1ccc(NS(C)(=O)=O)cc1	inactive	–	–
CC(NC(=S)NCC(COC(=O)C(C)(C)C)Cc1ccc(C(C)(C)C)cc1)c1ccc(NS(C)(=O)=O)cc1 (racemic)	inactive	–	–
Cc1ccc(CC(CNC(=S)N[C@H](C)c2ccc(NS(C)(=O)=O)cc2)COC(=O)C(C)(C)C)cc1C (stereo not given in full)	inactive	–	–
C[C@H](NC(=S)N[C@@H](COC(=O)C(C)(C)C)Cc1ccccc1)c1ccc(NS(C)(=O)=O)cc1	inactive	–	–
CC(C)(C)C(=O)OC[C@H](CNC(=S)NCc1ccc(NS(C)(=O)=O)cc1)Cc1ccccc1	inactive	236	80.6
CC(C)(C)C(=O)OC[C@@H](CNC(=S)NCc1ccc(NS(C)(=O)=O)cc1)Cc1ccccc1	inactive	252	64.3
Cc1ccc(CC(CNC(=S)NC(C)c2ccc(NS(C)(=O)=O)cc2)COC(=O)C(C)(C)C)cc1C (racemic)	inactive	–	–
